Measurements: patent US20030103945A1, “Methods and compositions for stimulating axon regeneration and preventing neuronal cell degeneration” (priority 2001, published 2003)
Where a SMILES comes first, the peptide text is derived from it. The star is where a group is joined. Cbz = O=C(OCc1ccccc1)*; CH2F = FC*

Legend:
RGCs = assay: Dissociated retinal cell culture, RGC survival and neurite outgrowth; format: cell-based, mouse; parameters: RGC death in dissociated retinal cell culture: dose or concentration left out as unconfirmed
Source text: Whether these two activities of neurons, survival and axonal growth, can be separated in vitro was next examined. The anti-apoptotic function of bcl-2 is well established (Davies, A. A TINS 18, 355-358 (1995); Korsmeyer, S. J. hnmunol. Today 13, 285-288 (1992); Farlie, et al. Proc. Natl. Acad Sci. USA 92, 4397-4401 (1995); Bonfanti, L. et al. J Neurosci. 16, 4186-4194 (1996)). Therefore, it is especially important to examine whether its growth-promoting activity is simply an indirect consequence of supporting cell survival. […] Note that this occurs in the absence of any neurotrophic factors added to the culture medium. The effect of the ICE inhibitor was also tested in the explant coculture system with tissue prepared from wild-type P2 mice. […] While treatment with ZVAD was sufficient to prevent death of RGCs, it is not sufficient to promote axonal growth. […]
The brain sections were visualized with a Nikon microscope and site of the lesion was reconstructed in 3 dimensions with MIT Neurotrace computer software. […] Cell death was detected by staining with the fluorescent dye, SYTOX green fluorescent dead cell stain (Molecular Probes). […]

retinal explants = assay: Retinotectal explant coculture, cell death (SYTOX green) and retinal axon growth; format: cell-based, mouse; parameters: protection of cells from death compared with bcl-2 transgenic mouse: dose or concentration left out as unconfirmed; conditions: wild-type P2 mice
Source text: Whether these two activities of neurons, survival and axonal growth, can be separated in vitro was next examined. The anti-apoptotic function of bcl-2 is well established (Davies, A. A TINS 18, 355-358 (1995); Korsmeyer, S. J. hnmunol. Today 13, 285-288 (1992); Farlie, et al. Proc. Natl. Acad Sci. USA 92, 4397-4401 (1995); Bonfanti, L. et al. J Neurosci. 16, 4186-4194 (1996)). Therefore, it is especially important to examine whether its growth-promoting activity is simply an indirect consequence of supporting cell survival. […] Note that this occurs in the absence of any neurotrophic factors added to the culture medium. The effect of the ICE inhibitor was also tested in the explant coculture system with tissue prepared from wild-type P2 mice. […] While treatment with ZVAD was sufficient to prevent death of RGCs, it is not sufficient to promote axonal growth. […] Evidence from other investigators (when viewed in conjunction with that provided herein) also support the theme that cell survival and axonal growth are two independent activities of neurons (Sagot, Y., Tan, S. A-Hammang, J. P., Aebischer, P. & Kato, A. C. J Neurosci. 16, 2335-2341 (1996); Dusart, 1. & Sotelo, C. J Comp. Neurol. 347, 211-232 (1994)). The regenerative failure of retinal axons and the decrease of bcl-2 levels in RGCs occur (E 18) before programmed cell death starts (P 1 P5) (Young, R. W. J Comp. Neurol. 229, 362-373 (1984)). […] These all support the position that bcl-2 promotes axonal growth through a mechanism independent of its anti apoptotic activity.
Brains were dissected into ice-cold Gey's balanced salt solution enriched with glucose. […] Retinal explants were abutted against tectal slices. Tissues were placed on the microporous membrane of Millicell wells (Millipore) and maintained in NeuralBasal medium supplemented with B27 (GIBCO Inc., New York) at 370C for five days. To exclude the possibility that tectal tissues from mutant mice may affect axonal growth of RGCs, a series of parallel experiments were performed in which one retinal explant of each mouse was confronted with the tecturn from the same mouse, while the second retinal explant was placed against the tecturn from another mouse. With this arrangement, retinal explants from each animal had the possibility of being cocultured with the tecturn from a wild-type, heterozygous, or homozygous animal. The number of regenerating axons was sampled by applying the lipophilic carbocyanine fluorescent label, DiI, in crystals to fixed retinal explants. The cocultures were stored in fixative for two-four weeks to allow diffusion of the dye, and labeled retinal axons were viewed with a fluorescence microscope (Nikon).
The brain sections were visualized with a Nikon microscope and site of the lesion was reconstructed in 3 dimensions with MIT Neurotrace computer software. Primary cultures of dissociated retinal cells were prepared from […] wild type or transgenic animals. RGCs were prelabeled by injecting DiI solution (25% in Dimethyl Formamide) into the tectal region bilaterally in PO pups. Cells were plated in 24-cell wells treated with poly-L-lysine (10 μg/ml, 4° C. overnight) and coated with Human Merosin ([…], r.t., 2 hr)(Meyer-Franke, A. and Barres, B. A. Neuron 15, 805-819 (1995)). Cultures were maintained for 2 to 3 days in NeuralBasal medium supplemented with B27. […] Cell death was detected by staining with the fluorescent dye, SYTOX green fluorescent dead cell stain (Molecular Probes). […]

[1] = increasing concentration of ZVAD (50, 100, 200)

CC(C)[C@H](NC(=O)OCc1ccccc1)C(=O)N[C@@H](C)C(=O)N[C@@H](CC(=O)O)C(=O)CF [ZVAD, Z-Val-Ala-Asp-CH2F] (Cbz-Val-Ala-Asp-CH2F)
RGC death in dissociated retinal cell culture (RGCs; 2 days in culture, retinae of P2 pups): effectively reduced RGC death | morphology and neurites of labeled RGCs from wild-type animals (RGCs; ZVAD-treated dissociated culture, no neurotrophic factors added): round and devoid of neurites | number of axons that invaded tectal slices, wild-type cultures versus bcl-2 transgenic mice (retinal explants; 200 mM ZVAD): 10 fold less | number of dying cells in retinal explants with increasing concentration (retinal explants; [1]): decreased | number of growing axons with increasing concentration (retinal explants; [1]): did not change significantly | protection of cells from death compared with bcl-2 transgenic mouse (retinal explants): protected cells from death almost as well as bcl-2 in the transgenic mouse | extent of cell death in retinal explants (retinal explants; explant coculture): reduced the extent of cell death in retinal explants
